The values that follow come from PubChem BioAssay (NCI).

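Test compounds were applied to cells in 96-well plates for 48 hours at 5 doses. GI50 marks 50% less growth. TGI: concentration producing complete growth inhibition.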

Test systems include PC-3 prostate; MOLT-4 leukemia; 786-0 renal; NCI-H23 lung; HT29 colon; HCC-2998 colon; SNB-19 CNS; DU-145 prostate; SNB-75 CNS; K-562 leukemia.
Assay in all cases: NCI anticancer screen, dose series, 48 h

Consider `Oc1ccc(NCc2nc3ccccc3[nH]2)cc1`, for which the GI50 was 33.6 µM in the test on PC-3 prostate; > 100 µM in the test with MOLT-4 leukemia; 74.5 µM in the test with 786-0 renal; 54.5 µM in the test on NCI-H23 lung; > 100 µM in the test on HT29 colon; 74.2 µM in the test on HCC-2998 colon. For the same compound, the GI50 with SNB-19 CNS is 33.6 µM; with DU-145 prostate it was 75.9 µM; with SNB-75 CNS, 18 µM. Besides, the TGI with PC-3 prostate, in the test on MOLT-4 leukemia, with 786-0 renal, in the test with NCI-H23 lung, in the test on HT29 colon and in the test with HCC-2998 colon was > 100 µM throughout. For the same compound, the TGI in the test with SNB-19 CNS is > 100 µM; in the test with DU-145 prostate, > 100 µM; with SNB-75 CNS, 62.5 µM.
As for `NC(=O)c1ccc(I)c(N)c1`, the GI50 in the test on MOLT-4 leukemia, in the test on 786-0 renal, in the test on NCI-H23 lung, in the test with HT29 colon, in the test on HCC-2998 colon and in the test with SNB-19 CNS was > 100 µM each time. Further, the GI50 in the test on DU-145 prostate and with SNB-75 CNS was > 100 µM throughout. The TGI in the test with MOLT-4 leukemia, in the test with 786-0 renal, in the test on NCI-H23 lung, in the test on HT29 colon, with HCC-2998 colon and in the test with SNB-19 CNS was > 100 µM throughout. The TGI in the test on DU-145 prostate and in the test on SNB-75 CNS was > 100 µM throughout.
For the compound `Cn1c(=O)c2[nH]c(SCc3ccccn3)nc2n(C)c1=S`, the TGI in the test on PC-3 prostate, with MOLT-4 leukemia, with 786-0 renal, with NCI-H23 lung, in the test with HT29 colon and with SNB-19 CNS was > 100 µM throughout. Also, the TGI with DU-145 prostate was > 100 µM; in the test with SNB-75 CNS, 45.2 µM; with K-562 leukemia, > 100 µM.
`Cc1ccc2c(c1)[n+]([O-])c(N)n[n+]2[O-]`: the TGI in the test with PC-3 prostate, in the test on MOLT-4 leukemia, with 786-0 renal, with NCI-H23 lung, in the test with HT29 colon and in the test with SNB-19 CNS was > 100 µM throughout. The TGI in the test on DU-145 prostate, in the test on SNB-75 CNS and in the test on K-562 leukemia was > 100 µM each time.
In the case of `CC(C)(CC(=O)Nc1ccccc1)C(=O)O`, the TGI in the test with PC-3 prostate, with MOLT-4 leukemia, with 786-0 renal, with NCI-H23 lung, in the test on HT29 colon and with SNB-19 CNS was > 100 µM in each case. Moreover, the TGI with DU-145 prostate and with K-562 leukemia was > 100 µM each time.
Regarding `O=C(/C(Br)=C/c1ccccc1)c1ccccc1`, the GI50 was 3.11 µM with PC-3 prostate; 2.23 µM with MOLT-4 leukemia; 1.9 µM in the test with 786-0 renal; 2.71 µM in the test on NCI-H23 lung; 6.8 µM with HCC-2998 colon; 13.1 µM in the test on SNB-19 CNS. Moreover, the results for the GI50 in the test on DU-145 prostate, in the test with SNB-75 CNS and with K-562 leukemia were 1.77 µM, 10.6 µM and 2.23 µM, respectively. Moreover, the TGI in the test on PC-3 prostate was determined as 10.5 µM; in the test with MOLT-4 leukemia it was 6.95 µM; in the test on 786-0 renal it was 3.48 µM; in the test with NCI-H23 lung it was 8.38 µM; with HCC-2998 colon it was 19 µM; with SNB-19 CNS, 26.1 µM. The TGI is 3.95 µM with DU-145 prostate, 24.2 µM in the test with SNB-75 CNS and 9.28 µM in the test on K-562 leukemia.
As to `CC[C@]1(O)C[C@@H]2CN(CCc3c([nH]c4ccccc34)[C@@](C(=O)OC)(c3cc4c(cc3OC)N(C)[C@H]3[C@@](O)(C(=O)OC)[C@H](OC(C)=O)[C@]5(CC)C=CCN6CC[C@]43[C@@H]65)C2)C1`, the GI50 in the test with PC-3 prostate, with MOLT-4 leukemia, in the test with 786-0 renal, with NCI-H23 lung, in the test on HT29 colon and in the test on HCC-2998 colon was < 0.01 µM each time. Besides, the GI50 in the test with SNB-19 CNS, with SNB-75 CNS and with K-562 leukemia was < 0.01 µM throughout. In addition, the TGI is 22.2 µM in the test on PC-3 prostate; 21.3 µM in the test on MOLT-4 leukemia; 14.5 µM with 786-0 renal; > 100 µM in the test with NCI-H23 lung; 18.9 µM in the test on HT29 colon; 7.74 µM in the test on HCC-2998 colon. Further, the TGI with SNB-19 CNS was > 100 µM; in the test with SNB-75 CNS, 0.592 µM; in the test with K-562 leukemia it was 14.6 µM.
In the case of `COc1ccc(-c2cnnc3c(-c4cccc(C(F)(F)F)c4)cnn23)cc1`, the GI50 was 6.22 µM in the test on PC-3 prostate; > 100 µM in the test on MOLT-4 leukemia; 2.76 µM with 786-0 renal; 4.26 µM in the test with NCI-H23 lung; > 100 µM with HCC-2998 colon; 2.45 µM in the test with SNB-19 CNS. Moreover, the values for the GI50 in the test on DU-145 prostate, with SNB-75 CNS and in the test with K-562 leukemia were 3.97 µM, 1.51 µM and > 100 µM, respectively. In addition, the TGI was > 100 µM in the test on PC-3 prostate; > 100 µM in the test with MOLT-4 leukemia; > 100 µM with 786-0 renal; > 100 µM in the test on NCI-H23 lung; > 100 µM in the test on HCC-2998 colon; 7.44 µM in the test on SNB-19 CNS. Further, the TGI was > 100 µM with DU-145 prostate, 4.6 µM with SNB-75 CNS and > 100 µM in the test with K-562 leukemia.
As for `COc1ccc(NC2=CC(=O)C(=O)c3ccccc32)nn1`, the TGI stood at 38.9 µM in the test with PC-3 prostate; 1.76 µM in the test on MOLT-4 leukemia; 3.76 µM with 786-0 renal; 6.2 µM in the test with NCI-H23 lung; 3.54 µM with HT29 colon; 21.2 µM in the test on HCC-2998 colon. Besides, the TGI is 18.1 µM with SNB-19 CNS, 3.19 µM with DU-145 prostate and 1.31 µM in the test with K-562 leukemia.
On to `Nc1nc(Cl)c2ncn(Cc3ccc(C45CC6CC(CC(C6)C4)C5)c(O)c3)c2n1`, for which the GI50 in the test on PC-3 prostate was 1.73 µM; in the test on MOLT-4 leukemia, 1.25 µM; with 786-0 renal it was 6.04 µM; in the test with HT29 colon, 4.04 µM; with HCC-2998 colon, 2.26 µM; in the test with SNB-19 CNS, 6.53 µM. In addition, the values for the GI50 in the test with DU-145 prostate and in the test on SNB-75 CNS were 3.14 µM and 3.88 µM, respectively. In addition, the TGI was 4.44 µM in the test on PC-3 prostate; 16.2 µM in the test with MOLT-4 leukemia; 20 µM in the test with 786-0 renal; 46.7 µM in the test on HT29 colon; 8.34 µM in the test on HCC-2998 colon; 22.8 µM in the test on SNB-19 CNS. Moreover, the TGI with DU-145 prostate is 11.8 µM; with SNB-75 CNS it was 28.9 µM.
